Laboratory results published in patent US11045453B1 (priority 2020, dated 2021).
Entries after “also recorded” stand apart in the source; their conditions may differ.

Columns and labels:
Human Prostasin = Human Prostasin (Homo sapiens, UniProt Q16651); test: Protease inhibition (IC50), chromogenic substrate cleavage; format: biochemical; conditions: listed as marked (IC50) in the Ki column, read-out: IC50 Mean ± SD (n)
Human TMPRSS2 = target: T1, Human TMPRSS2 (Homo sapiens, UniProt O15393); test: Ki determination, chromogenic substrate cleavage; format: biochemical; conditions: read-out: Ki Mean ± SD (n)
T1 construct: purchased MyBioSource MBS1193731; host or cells: mammalian expression system
Procedure: The Ki was determined to be 2.9±0.04 (3) μM.

Human C1s = Human C1s (Homo sapiens, UniProt P09871); test: Ki determination, chromogenic substrate cleavage; format: biochemical; conditions: read-out: Ki Mean ± SD (n)
Sequence of Human C1s (P09871 16-688): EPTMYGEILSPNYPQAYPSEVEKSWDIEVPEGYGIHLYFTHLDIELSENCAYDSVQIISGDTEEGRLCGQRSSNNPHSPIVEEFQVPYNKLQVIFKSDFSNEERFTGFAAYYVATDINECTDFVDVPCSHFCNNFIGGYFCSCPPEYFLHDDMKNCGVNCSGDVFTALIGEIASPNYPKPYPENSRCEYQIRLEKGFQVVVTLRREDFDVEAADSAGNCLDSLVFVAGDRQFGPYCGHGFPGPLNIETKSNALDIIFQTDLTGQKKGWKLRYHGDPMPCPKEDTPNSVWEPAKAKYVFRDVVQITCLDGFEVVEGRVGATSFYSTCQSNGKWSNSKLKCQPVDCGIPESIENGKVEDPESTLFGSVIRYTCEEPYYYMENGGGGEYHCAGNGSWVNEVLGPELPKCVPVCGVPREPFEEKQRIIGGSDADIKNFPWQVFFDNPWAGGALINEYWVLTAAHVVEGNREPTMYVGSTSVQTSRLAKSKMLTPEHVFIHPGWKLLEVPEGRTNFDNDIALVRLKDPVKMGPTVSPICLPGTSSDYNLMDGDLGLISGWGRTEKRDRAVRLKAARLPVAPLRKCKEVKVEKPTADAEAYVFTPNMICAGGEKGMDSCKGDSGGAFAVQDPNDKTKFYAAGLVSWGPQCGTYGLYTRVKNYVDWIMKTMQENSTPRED

Human uPA = Human uPA (Homo sapiens, UniProt P00749); test: Ki determination, chromogenic substrate cleavage; format: biochemical; conditions: read-out: Ki Mean ± SD (n)
Human Granzyme A = Human Granzyme A (Homo sapiens, UniProt P12544); test: Ki determination, chromogenic substrate cleavage; format: biochemical; conditions: read-out: Ki Mean ± SD (n)
Human Kallikrein-1 = Human Kallikrein-1 (Homo sapiens, UniProt P06870); test: Ki determination, chromogenic substrate cleavage; format: biochemical; conditions: read-out: Ki Mean ± SD (n)
Sequence of Human Kallikrein-1 (P06870 25-262): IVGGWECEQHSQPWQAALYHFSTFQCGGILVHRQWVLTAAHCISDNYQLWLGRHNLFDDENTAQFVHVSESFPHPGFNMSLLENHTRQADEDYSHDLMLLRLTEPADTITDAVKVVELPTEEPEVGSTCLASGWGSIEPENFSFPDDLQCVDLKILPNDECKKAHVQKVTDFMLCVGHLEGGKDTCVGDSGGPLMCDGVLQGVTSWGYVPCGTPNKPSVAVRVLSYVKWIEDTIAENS

Human Fxa = target: T2, Human Fxa (Homo sapiens, UniProt P00742); test: Ki determination, chromogenic substrate cleavage; format: biochemical; conditions: read-out: Ki Mean ± SD (n)
T2 construct: Human Fxa

Human PRSS27 = Human PRSS27 (Homo sapiens, UniProt Q9BQR3); test: Protease inhibition (IC50), chromogenic substrate cleavage; format: biochemical; conditions: listed as marked (IC50) in the Ki column, read-out: IC50 Mean ± SD (n)
Human Trypsin-2 = Human Trypsin-2 (Homo sapiens, UniProt P07478); test: biochemical
Human Trypsin-1 = Human Trypsin-1 (Homo sapiens, UniProt P07477); test: biochemical
Human two-chain tPA = target: T3, Human two-chain tPA (Homo sapiens, UniProt P00750); test: Ki determination, chromogenic substrate cleavage; format: biochemical; conditions: read-out: Ki Mean ± SD (n)
T3 construct: Human two-chain tPA

Human FIXa = target: T4, Human FIXa (Homo sapiens, UniProt P00740); test: Ki determination, chromogenic substrate cleavage; format: biochemical; conditions: read-out: Ki Mean ± SD (n)
T4 construct: Human FIXa

[1] = target: Bovine Cationic Trypsin-1 (Bos taurus, UniProt P00760); test: Ki determination, chromogenic substrate cleavage; format: biochemical; conditions: read-out: Ki Mean ± SD (n)
Sequence of Bovine Cationic Trypsin-1 (P00760 24-246): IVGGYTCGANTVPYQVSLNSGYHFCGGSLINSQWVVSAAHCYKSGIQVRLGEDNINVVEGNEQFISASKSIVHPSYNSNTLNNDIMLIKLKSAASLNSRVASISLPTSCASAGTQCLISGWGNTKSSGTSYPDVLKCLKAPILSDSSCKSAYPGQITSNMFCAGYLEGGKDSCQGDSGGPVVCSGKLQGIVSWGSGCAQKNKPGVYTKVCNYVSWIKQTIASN

[2] = system: SARS-CoV-2 clinical isolate (2019-nCoV/USA-WA1/2020); format: cell-based
[3] = system: VSV-G pseudotypes in Calu-3 cells; format: cell-based, human
Human Trypsin-3 = Human Trypsin-3 (Homo sapiens, UniProt P35030); test: biochemical
Human DESC-1 = Human DESC-1 (Homo sapiens, UniProt Q9UL52); test: Ki determination, chromogenic substrate cleavage; format: biochemical; conditions: read-out: Ki Mean ± SD (n)
Human Spinesin = Human Spinesin (Homo sapiens, UniProt Q9H3S3); test: Ki determination, chromogenic substrate cleavage; format: biochemical; conditions: read-out: Ki Mean ± SD (n)
Sequence of Human Spinesin (Q9H3S3 whole entry): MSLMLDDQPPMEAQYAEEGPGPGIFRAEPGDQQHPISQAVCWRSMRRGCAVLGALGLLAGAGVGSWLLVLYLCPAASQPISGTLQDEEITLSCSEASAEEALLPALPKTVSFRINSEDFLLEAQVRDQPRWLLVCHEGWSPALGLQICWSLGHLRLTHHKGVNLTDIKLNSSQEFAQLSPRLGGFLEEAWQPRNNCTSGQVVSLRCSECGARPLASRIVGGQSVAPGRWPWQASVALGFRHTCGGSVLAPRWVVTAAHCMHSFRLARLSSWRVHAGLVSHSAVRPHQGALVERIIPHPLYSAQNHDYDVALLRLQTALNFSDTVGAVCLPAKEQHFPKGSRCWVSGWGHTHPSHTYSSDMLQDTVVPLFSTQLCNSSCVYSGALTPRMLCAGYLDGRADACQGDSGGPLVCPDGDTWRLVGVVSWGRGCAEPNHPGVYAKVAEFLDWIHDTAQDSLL

Rat uPA = Rat uPA (Rattus norvegicus, UniProt P29598); test: Ki determination, chromogenic substrate cleavage; format: biochemical; conditions: read-out: Ki Mean ± SD (n)
[4] = system: VSVpp+SARS-2-S Δ18 in Vero-E6 cells; format: cell-based, African green monkey
[5] = target: Human uPA (Q192A in medium) (Homo sapiens, UniProt P00749, Q373A); test: Ki determination, chromogenic substrate cleavage; format: biochemical; conditions: read-out: Ki Mean ± SD (n)
Human Plasmin = target: T5, Human Plasmin (Homo sapiens, UniProt P00747); test: Ki determination, chromogenic substrate cleavage; format: biochemical; conditions: read-out: Ki Mean ± SD (n)
T5 construct: Human Plasmin

Human Kallikrein-8 = Human Kallikrein-8 (Homo sapiens, UniProt O60259); test: Ki determination, chromogenic substrate cleavage; format: biochemical; conditions: read-out: Ki Mean ± SD (n)
Human Trypsin-6 = Human Trypsin-6 (Homo sapiens, UniProt Q8NHM4); test: Ki determination, chromogenic substrate cleavage; format: biochemical; conditions: read-out: Ki Mean ± SD (n)
Sequence of Human Trypsin-6 (Q8NHM4 16-247): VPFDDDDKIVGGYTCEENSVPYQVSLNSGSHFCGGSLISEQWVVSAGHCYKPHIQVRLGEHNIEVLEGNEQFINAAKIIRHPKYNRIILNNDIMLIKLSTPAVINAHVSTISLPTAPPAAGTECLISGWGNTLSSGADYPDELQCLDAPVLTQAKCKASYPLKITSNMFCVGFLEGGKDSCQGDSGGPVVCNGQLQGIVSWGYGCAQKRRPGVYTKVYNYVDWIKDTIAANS

Human Matriptase-2 = Human Matriptase-2 (Homo sapiens, UniProt Q8IU80); test: Ki determination, chromogenic substrate cleavage; format: biochemical; conditions: read-out: Ki Mean ± SD (n)
Sequence of Human Matriptase-2 (Q8IU80 whole entry): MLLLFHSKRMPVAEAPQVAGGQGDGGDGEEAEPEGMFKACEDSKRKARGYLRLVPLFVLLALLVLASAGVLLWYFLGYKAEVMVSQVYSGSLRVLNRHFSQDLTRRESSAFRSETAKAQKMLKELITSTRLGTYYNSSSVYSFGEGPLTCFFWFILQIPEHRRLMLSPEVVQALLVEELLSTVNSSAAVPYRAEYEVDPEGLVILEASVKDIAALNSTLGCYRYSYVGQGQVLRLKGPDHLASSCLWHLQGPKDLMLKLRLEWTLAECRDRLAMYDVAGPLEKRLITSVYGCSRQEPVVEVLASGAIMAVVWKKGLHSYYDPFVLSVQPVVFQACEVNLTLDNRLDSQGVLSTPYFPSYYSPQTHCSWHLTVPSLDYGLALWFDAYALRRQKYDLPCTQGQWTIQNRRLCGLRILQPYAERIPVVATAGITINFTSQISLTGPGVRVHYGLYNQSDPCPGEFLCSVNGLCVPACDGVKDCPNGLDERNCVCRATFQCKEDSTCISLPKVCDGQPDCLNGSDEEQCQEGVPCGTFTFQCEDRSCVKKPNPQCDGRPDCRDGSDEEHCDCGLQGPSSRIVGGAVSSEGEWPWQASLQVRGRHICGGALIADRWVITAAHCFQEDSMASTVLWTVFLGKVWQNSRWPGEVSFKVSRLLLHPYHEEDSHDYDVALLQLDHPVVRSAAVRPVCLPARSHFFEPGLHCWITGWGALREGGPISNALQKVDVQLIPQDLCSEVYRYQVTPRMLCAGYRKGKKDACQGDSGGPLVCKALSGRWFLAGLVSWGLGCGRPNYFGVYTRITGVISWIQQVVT

Human Hepsin = Human Hepsin (Homo sapiens, UniProt P05981); test: Ki determination, chromogenic substrate cleavage; format: biochemical; conditions: read-out: Ki Mean ± SD (n)
Human FXIa = target: T6, Human FXIa (Homo sapiens, UniProt P03951); test: Ki determination, chromogenic substrate cleavage; format: biochemical; conditions: read-out: Ki Mean ± SD (n)
T6 construct: Human FXIa
T6 sequence (P03951 388-625 limits assumed): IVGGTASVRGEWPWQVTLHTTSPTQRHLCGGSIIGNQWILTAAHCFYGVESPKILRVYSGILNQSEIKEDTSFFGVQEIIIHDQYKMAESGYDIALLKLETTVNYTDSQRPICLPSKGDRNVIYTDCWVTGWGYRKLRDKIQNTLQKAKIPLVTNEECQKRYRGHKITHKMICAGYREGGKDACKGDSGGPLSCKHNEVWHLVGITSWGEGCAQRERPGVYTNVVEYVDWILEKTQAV
T6 sequence (P03951 19-387 partner limits assumed): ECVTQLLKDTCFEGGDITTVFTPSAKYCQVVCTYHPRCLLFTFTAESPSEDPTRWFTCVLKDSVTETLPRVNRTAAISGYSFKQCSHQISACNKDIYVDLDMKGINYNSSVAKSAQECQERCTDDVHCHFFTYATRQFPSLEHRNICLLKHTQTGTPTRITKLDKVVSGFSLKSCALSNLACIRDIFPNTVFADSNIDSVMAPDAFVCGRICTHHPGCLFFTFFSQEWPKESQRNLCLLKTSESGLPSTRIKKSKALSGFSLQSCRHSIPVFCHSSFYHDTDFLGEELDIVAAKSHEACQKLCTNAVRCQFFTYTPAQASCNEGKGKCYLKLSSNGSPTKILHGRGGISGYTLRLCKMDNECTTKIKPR

Human HGFA = Human HGFA (Homo sapiens, UniProt Q04756); test: Ki determination, chromogenic substrate cleavage; format: biochemical; conditions: read-out: Ki Mean ± SD (n)
Human Thrombin = target: T7, Human Thrombin (Homo sapiens, UniProt P00734); test: Ki determination, chromogenic substrate cleavage; format: biochemical; conditions: read-out: Ki Mean ± SD (n)
T7 construct: Human Thrombin

[6] = target: Human uPA (H99A in medium) (Homo sapiens, UniProt P00749, H272A); test: Ki determination, chromogenic substrate cleavage; format: biochemical; conditions: read-out: Ki Mean ± SD (n)
Mouse uPA = Mouse uPA (Mus musculus, UniProt P06869); test: Ki determination, chromogenic substrate cleavage; format: biochemical; conditions: read-out: Ki Mean ± SD (n)
Rabbit uPA = Rabbit uPA (Oryctolagus cuniculus, UniProt Q8MHY7); test: Ki determination, chromogenic substrate cleavage; format: biochemical; conditions: read-out: Ki Mean ± SD (n)
Human Kallikrein-11 = Human Kallikrein-11 (Homo sapiens, UniProt Q9UBX7); test: Ki determination, chromogenic substrate cleavage; format: biochemical; conditions: read-out: Ki Mean ± SD (n)
Sequence of Human Kallikrein-11 (Q9UBX7 54-282): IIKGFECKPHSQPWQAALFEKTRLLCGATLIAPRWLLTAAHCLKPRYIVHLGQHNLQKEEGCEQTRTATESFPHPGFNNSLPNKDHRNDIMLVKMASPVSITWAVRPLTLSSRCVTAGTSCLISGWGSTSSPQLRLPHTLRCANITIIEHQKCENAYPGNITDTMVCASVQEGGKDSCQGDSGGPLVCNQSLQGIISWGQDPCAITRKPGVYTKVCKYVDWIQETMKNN

[7] = target: Human Activated Protein C (Homo sapiens, UniProt P04070); test: Ki determination, chromogenic substrate cleavage; format: biochemical; conditions: read-out: Ki Mean ± SD (n)
Human Plasma Kallikrein = Human Plasma Kallikrein (Homo sapiens, UniProt P03952); test: Ki determination, chromogenic substrate cleavage; format: biochemical; conditions: read-out: Ki Mean ± SD (n)
[8] = system: VSVpp+SARS-2-S Δ18 in Calu-3 cells; format: cell-based, human
Human HAT = Human HAT (Homo sapiens, UniProt O60235); test: Ki determination, chromogenic substrate cleavage; format: biochemical; conditions: read-out: Ki Mean ± SD (n)
Human TMPRSS11(A) = target: T8, Human TMPRSS11(A) (Homo sapiens, UniProt Q6ZMR5); test: Ki determination, chromogenic substrate cleavage; format: biochemical; conditions: read-out: Ki Mean ± SD (n)
T8 construct: purchased MyBioSource MBS1345824; host or cells: mammalian expression system
T8 sequence (Q6ZMR5 whole entry): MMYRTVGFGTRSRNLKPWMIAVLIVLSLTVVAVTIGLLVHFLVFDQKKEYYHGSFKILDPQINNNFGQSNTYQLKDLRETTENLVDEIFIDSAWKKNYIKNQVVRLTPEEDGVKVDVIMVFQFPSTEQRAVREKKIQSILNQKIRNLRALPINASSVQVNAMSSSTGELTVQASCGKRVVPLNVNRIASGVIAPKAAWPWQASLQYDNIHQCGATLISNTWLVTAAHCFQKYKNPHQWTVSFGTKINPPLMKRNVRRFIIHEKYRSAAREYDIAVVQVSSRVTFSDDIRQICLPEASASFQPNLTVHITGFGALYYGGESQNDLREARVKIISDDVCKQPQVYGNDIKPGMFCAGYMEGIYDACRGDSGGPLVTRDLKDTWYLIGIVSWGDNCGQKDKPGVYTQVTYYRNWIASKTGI
Procedure: The Ki was determined to be 0.39±0.01 (3) μM.

Human Enterokinase = Human Enterokinase (Homo sapiens, UniProt P98073); test: Ki determination, chromogenic substrate cleavage; format: biochemical; conditions: read-out: Ki Mean ± SD (n)
Sequence of Human Enterokinase (P98073 whole entry): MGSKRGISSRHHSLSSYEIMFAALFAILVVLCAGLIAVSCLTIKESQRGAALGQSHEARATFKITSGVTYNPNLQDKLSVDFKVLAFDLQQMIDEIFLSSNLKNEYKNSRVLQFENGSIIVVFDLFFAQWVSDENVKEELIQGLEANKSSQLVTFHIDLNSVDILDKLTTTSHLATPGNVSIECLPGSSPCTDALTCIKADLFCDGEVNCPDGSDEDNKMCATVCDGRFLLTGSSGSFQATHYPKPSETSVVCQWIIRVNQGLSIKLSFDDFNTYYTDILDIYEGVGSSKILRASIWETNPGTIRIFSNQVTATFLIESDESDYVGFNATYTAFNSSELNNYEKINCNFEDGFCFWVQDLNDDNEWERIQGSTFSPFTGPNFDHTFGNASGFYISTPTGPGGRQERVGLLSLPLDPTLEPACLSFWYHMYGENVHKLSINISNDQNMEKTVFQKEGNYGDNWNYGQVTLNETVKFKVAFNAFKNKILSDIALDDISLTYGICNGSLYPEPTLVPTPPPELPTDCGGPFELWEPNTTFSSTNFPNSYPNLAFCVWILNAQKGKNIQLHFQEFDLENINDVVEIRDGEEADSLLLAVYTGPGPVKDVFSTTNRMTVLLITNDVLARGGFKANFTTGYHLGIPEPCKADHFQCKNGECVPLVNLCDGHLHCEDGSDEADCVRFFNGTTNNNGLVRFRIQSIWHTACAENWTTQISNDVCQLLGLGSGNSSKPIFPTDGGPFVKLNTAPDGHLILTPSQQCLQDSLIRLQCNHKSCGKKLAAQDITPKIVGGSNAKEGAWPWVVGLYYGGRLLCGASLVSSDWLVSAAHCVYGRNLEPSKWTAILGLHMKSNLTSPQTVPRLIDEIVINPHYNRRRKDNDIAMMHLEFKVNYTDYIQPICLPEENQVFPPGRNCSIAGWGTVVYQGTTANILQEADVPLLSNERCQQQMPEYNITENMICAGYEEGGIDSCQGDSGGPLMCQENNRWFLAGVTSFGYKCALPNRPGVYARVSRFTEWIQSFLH

CCOC(=O)N1CCN(C(=O)[C@H](Cc2cccc(C(=N)N)c2)NS(=O)(=O)c2c(C(C)C)cc(C(C)C)cc2C(C)C)CC1 [WX-UK1, N-α-(2,4,6-triisopropylphenylsulfonyl)-3-amidino-phenylalanine-4-ethoxycarbonylpiperazide]
IC50 (Human Prostasin): > 250000 nM
Ki (Human TMPRSS2): 2900 ± 40 nM
Ki (Human C1s): 3100 ± 400 nM
Ki (Human uPA): 900 ± 100 nM
Ki (Human Granzyme A): > 250000 nM
Ki (Human Kallikrein-1): > 250000 nM
Ki (Human Fxa): 2600 ± 400 nM
IC50 (Human PRSS27): 19000 ± 4000 nM
Ki (Human Trypsin-2): 75 ± 3 nM
Ki (Human Trypsin-1): 190 ± 10 nM
Ki (Human two-chain tPA): 1400 ± 100 nM
Ki (Human FIXa): 2500 ± 200 nM
Ki [1]: 500 ± 100 nM
antiviral activity / viral replication [2]: potent antiviral activity; also recorded: inhibited
infectious virus production, TCID50 assay in apical washes [2]: dose-dependent reduction
reduction in viral load by TCID50 ([2]; lowest concentration 3.33 μg/ml, […]): 4 log
inhibition of VSV-G entry [3]: moderately inhibited
Ki (Human Trypsin-3): 19 ± 4 nM
Ki (Human DESC-1): 13000 ± 2000 nM
Ki (Human Spinesin): 7700 ± 500 nM
Ki (Rat uPA): 400 ± 100 nM
inhibition of SARS-2-S-driven pseudotype entry [4]: moderate inhibitory activity
Ki [5]: 2900 ± 100 nM
Ki (Human Plasmin): 2400 ± 300 nM
Ki (Human Kallikrein-8): > 250000 nM
Ki (Human Trypsin-6): 100 ± 10 nM
Ki (Human Matriptase-2): 6400 ± 300 nM
Ki (Human Hepsin): 4300 ± 500 nM
Ki (Human FXIa): 900 ± 100 nM
Ki (Human HGFA): 28000 ± 5000 nM
Ki (Human Thrombin): 800 ± 100 nM
Ki [6]: 14000 ± 400 nM
Ki (Mouse uPA): 45000 ± 6000 nM
Ki (Rabbit uPA): 800 ± 100 nM
Ki (Human Kallikrein-11): > 250000 nM
Ki [7]: 3900 ± 200 nM
Ki (Human Plasma Kallikrein): 26000 ± 1000 nM
inhibition of SARS-2-S-driven pseudotype entry [8]: moderate inhibitory activity
Ki (Human HAT): 1500 ± 100 nM
Ki (Human TMPRSS11(A)): 390 ± 10 nM
Ki (Human Enterokinase): 710 ± 40 nM

CCN(CC)CCCC(C)Nc1ccnc2cc(Cl)ccc12 (centres unmarked) [chloroquine]
inhibition of S protein-driven entry [4]: potently inhibited

4-[[4-[(Aminoiminomethyl)amino]benzoyl]oxy] benzeneacetic acid 2-(dimethylamino)-2-oxoethyl ester methanesulfonate [camostat, reference compound]
antiviral activity / viral replication [2]: inhibited
inhibition of SARS-2-S-driven pseudotype entry [4]: inactive
